Assay results as given in patent publication US5817685A, “Anticonvulsive imidazoline-2,4-diones and process for making” (Arzneimittelwerk Dresden GmbH, priority 1996, dated 1998).
Read-outs that look alike come from different tables or passages of the source.

What was measured:
clonic seizures = details: dose of pentetrazol that produces solely clonic seizures; cited from earlier work
[1] = system: electrically induced seizures (maximum electroshock); test: maximum electroshock (MES) test in mice; type: in vivo, mouse; details: ip
Experimental: (§1) They were tested for their anticonvulsive action in vivo after i.p. administration using the international customary mouse animal models described in Pharmac Weekblad, Sc. Ed.
Seizures can also be induced electrically for the identification of anticonvulsant activity. This test is referred to as the MES test for identifying CNS active drugs. A […] (60 Hz) electrical current for 0.2 s is delivered by a corneal electrode to mice. The current is four to five times as large as the threshold current needed to produce the tonic seizure. These specific parameters are used to identify compounds that prevent seizure spread, therapeutic agents for generalized tonic clonic seizures. Therapeutic agents for absence of seizures are undetected. However, when the current is lowered to […], compounds which modify both seizure spread and seizure threshold are identified.
^1 MES = maximum electroshock

[2] = system: pentetrazol-induced seizures; test: s.c. pentetrazol (PTZ) test in mice; type: in vivo; details: mouse
Experimental: as §1
The most commonly used chemoconvulsant is pentetrazol which can be used as a primary screen for anticonvulsant activity when dosages that produce hindlimb tonic extension are administered. A dose of pentetrazol that produces solely clonic seizures cannot be used as primary screen for new compounds, as phenytoin and carbamazepine have no effect on the blocking of clonic seizures. This test using pentetrazol to induce seizures, used as a primary screen of anticonvulsant activity is referred to in the results below as PEZ.
^2 PTZ = S. C. pentetrazol

[3] = octanol-H2O partition coefficient; type: physicochemical; details: octanol-water, read-out: Log p (octanol-H2O) partition coeff.
in vivo = details: mouse, ip
[4] = system: seizures (maximum electroshock model, pentetrazol test); test: anticonvulsive action in mouse animal models (maximum electroshock and pentetrazol); type: in vivo; details: comparison with known antiepileptics
Experimental: They were tested for their anticonvulsive action in vivo after i.p. administration using the international customary mouse animal models described in Pharmac Weekblad, Sc. Ed. The most commonly used chemoconvulsant is pentetrazol which can be used as a primary screen for anticonvulsant activity when dosages that produce hindlimb tonic extension are administered. […] This test using pentetrazol to induce seizures, used as a primary screen of anticonvulsant activity is referred to in the results below as PEZ. Seizures can also be induced electrically for the identification of anticonvulsant activity. […] A […] (60 Hz) electrical current for 0.2 s is delivered by a corneal electrode to mice. The current is four to five times as large as the threshold current needed to produce the tonic seizure. These specific parameters are used to identify compounds that prevent seizure spread, therapeutic agents for generalized tonic clonic seizures. […] However, when the current is lowered to […], compounds which modify both seizure spread and seizure threshold are identified.

[5] = mouse, i.p., read-out: Action % of Animals, MES
[6] = ip, i.p., read-out: Action % of Animals, PTZ
[7] = mouse, i.p., dose 100 mg/kg, read-out: Action % of Animals, MES

logP [3] | Structure (SMILES) | responders at 30 mg/kg [1, 5] | responders at 100 mg/kg [2, 6] | responders at 100 mg/kg [1, 7] | also measured
– | O=C1NC(=O)C(c2ccccc2)(c2ccccc2)N1 [phenytoin] | – | – | – | effect on the blocking of clonic seizures (clonic seizures): no effect
0.69 | O=C1CN(c2c(Cl)cccc2Cl)C(=O)N1 [Example 3, 1-(2,6-dichlorophenyl)imidazoline-2,4-dione] | 100% | 100% | – | –
0.86 | Cc1cc(Cl)ccc1N1CC(=O)NC1=O [Example 5, 1-(4-chloro-2-methylphenol)imidazoline-2,4-dione] | 100% | – | – | responders at 30 mg/kg [2, 6]: 100%
– | O=C1CN(Cc2ccccc2C(F)(F)F)C(=O)N1 [Example 9] | 100% | – | – | responders at 30 mg/kg [2, 6]: 100%
1.12 | O=C1CN(Cc2ccccc2Cl)C(=O)N1 [Example 6, 1-(2-chlorobenzyl)imidazoline-2,4-dione] | 100% | – | – | responders at 30 mg/kg [2, 6]: 100%
– | NC(=O)N1c2ccccc2C=Cc2ccccc21 [Carbamazepine, reference compound] | – | 0% | 100% | activity in maximum electroshock model or pentetrazol test [4]: active either in the maximum electroshock model, or in the pentetrazol test, but not in both; effect on the blocking of clonic seizures (clonic seizures): no effect
0.49 | O=C1CN(c2ccccc2Cl)C(=O)N1 [Example 1, 1-(2-chlorophenyl)imidazoline-2,4-dione] | – | – | – | responders at 300 mg/kg ([1]; mouse, i.p., dose 300 mg/kg, read-out: Action % of Animals, MES): 100%; responders at 300 mg/kg ([2]; ip, i.p., dose 300 mg/kg, read-out: Action % of Animals, PTZ): 0%
– | CCCC(CCC)C(=O)O [Valproate, reference compound] | – | 0% | – | responders at 100 mg/kg ([1]; Mus musculus, read-out: Action % of Animals, MES): 0%
– | O=C1CN(c2ccccc2F)C(=O)N1 [Example 4, 1-(2-fluorophenyl)imidazoline-2,4-dione] | – | 100% | 100% | –
– | CCCC(CCC)C(=O)O [calcium valproate] | – | – | – | activity in maximum electroshock model or pentetrazol test [4]: active either in the maximum electroshock model, or in the pentetrazol test, but not in both
1.16 | O=C1CN(c2cccc(Cl)c2Cl)C(=O)N1 [Example 2, 1-(2,3-dichlorophenyl)imidazoline-2,4-dione] | – | 100% | 100% | –
1.44 | O=C1CN(Cc2c(Cl)cccc2Cl)C(=O)N1 [Example 7, 1-(2,6-dichlorobenzyl)imidazoline-2,4-dione] | – | 100% | 100% | –

Structure (SMILES) | logP [3] | responders at 30 mg/kg [1, 5] | responders at 100 mg/kg [2, 6] | responders at 100 mg/kg [1, 7] | also measured
O=C1CN(Cc2c(F)cccc2F)C(=O)N1 [Example 8, 1-(2,6-difluorobenzyl)imidazoline-2,4-dione] | 0.63 | – | 100% | 100% | ED50 ([1]; mouse): 36 mg/kg; ED50 ([2]; sc): 50 mg/kg; TD50 (in vivo): 123 mg/kg
